Test results from patent US7538221B2, “Polymorphs of racemic, dextrorotatory, and levorotatory enantioners of 1-cyclopropyl-6-fluoro-8-methoxy-7-(4-amino-3,3-dimethylpiperidin-1-yl)-1,4-dihydro-4-oxo-quinoline-3-carboxylic acid hydrochloride and mesylate salts” (The Company of Wockhardt Limited, priority 2003, dated 2009).
Like-named read-outs stand apart in the source and are kept apart here. One block for each compound: values may come before it.

Legend:
[1] = Percent relative humidity stability study; format: physicochemical
[2] = Aqueous solubility of salt polymorphs; conditions: water, 25 °C, Aqueous Solubility at 25-30° C. (mg/ml)
[3] = solid kept for 20 days in 78% relative humidity

Compound: COc1c(N2CC[C@H](N)C(C)(C)C2)c(F)cc2c(=O)c(C(=O)O)cn(C3CC3)c12.Cl [(−) A-4, S-(−)-1-cyclopropyl-6-fluoro-8-methoxy-7-(4-amino-3,3-dimethylpiperidin-1-yl)-1,4-dihydro-4-oxo-quinoline-3-carboxylic acid hydrochloride]
- polymorph change on storage (Powder X-ray Diffraction spectrum and aqueous solubility change) [1]: changed to polymorph A-3

Compound: COc1c(N2CC[C@@H](N)C(C)(C)C2)c(F)cc2c(=O)c(C(=O)O)cn(C3CC3)c12.Cl [(+) A-2, R-(+)-1-cyclopropyl-6-fluoro-8-methoxy-7-(4-amino-3,3-dimethylpiperidin-1-yl)-1,4-dihydro-4-oxo-quinoline-3-carboxylic acid hydrochloride]
- thermodynamic stability of polymorph ([1]; from percent relative humidity stability study and aqueous solubility data): thermodynamically stable

Compound: COc1c(N2CC[C@@H](N)C(C)(C)C2)c(F)cc2c(=O)c(C(=O)O)cn(C3CC3)c12.Cl [(+) A-3, R-(+)-1-cyclopropyl-6-fluoro-8-methoxy-7-(4-amino-3,3-dimethylpiperidin-1-yl)-1,4-dihydro-4-oxo-quinoline-3-carboxylic acid hydrochloride]
- polymorph change on storage (Powder X-ray Diffraction spectrum and aqueous solubility change) [1, 3]: changed to polymorph A-2

Compound: COc1c(N2CCC(N)C(C)(C)C2)c(F)cc2c(=O)c(C(=O)O)cn(C3CC3)c12.Cl (racemic) [(±) A-3, (±)-1-cyclopropyl-6-fluoro-8-methoxy-7-(4-amino-3,3-dimethylpiperidin-1-yl)-1,4-dihydro-4-oxo-quinoline-3-carboxylic acid hydrochloride]
- polymorph change on storage (Powder X-ray Diffraction spectrum and aqueous solubility change) [1, 3]: changed to polymorph A-2

Compound: COc1c(N2CC[C@H](N)C(C)(C)C2)c(F)cc2c(=O)c(C(=O)O)cn(C3CC3)c12.Cl [(−) A-2, S-(−)-1-cyclopropyl-6-fluoro-8-methoxy-7-(4-amino-3,3-dimethylpiperidin-1-yl)-1,4-dihydro-4-oxo-quinoline-3-carboxylic acid hydrochloride]
- polymorph change on storage (Powder X-ray Diffraction spectrum and aqueous solubility change) [1]: changed to polymorph A-3
- thermodynamic stability of polymorph [1]: thermodynamically stable

Continued, values first:

- solubility [2]: 80 to 200 mg/mL
Compound: COc1c(N2CCC(N)C(C)(C)C2)c(F)cc2c(=O)c(C(=O)O)cn(C3CC3)c12.CS(=O)(=O)O (racemic) [(±) B-1, (±)-1-cyclopropyl-6-fluoro-8-methoxy-7-(4-amino-3,3-dimethylpiperidin-1-yl)-1,4-dihydro-4-oxo-quinoline-3-carboxylic acid mesylate]

- polymorph change on storage (Powder X-ray Diffraction spectrum and aqueous solubility change) [1, 3]: changed to polymorph A-2
Compound: COc1c(N2CC[C@@H](N)C(C)(C)C2)c(F)cc2c(=O)c(C(=O)O)cn(C3CC3)c12.Cl [(+) A-1, R-(+)-1-cyclopropyl-6-fluoro-8-methoxy-7-(4-amino-3,3-dimethylpiperidin-1-yl)-1,4-dihydro-4-oxo-quinoline-3-carboxylic acid hydrochloride]

- polymorph change on storage (Powder X-ray Diffraction spectrum and aqueous solubility change) [1]: changed to polymorph A-3
Compound: COc1c(N2CC[C@H](N)C(C)(C)C2)c(F)cc2c(=O)c(C(=O)O)cn(C3CC3)c12.Cl [(−) A-1, S-(−)-1-cyclopropyl-6-fluoro-8-methoxy-7-(4-amino-3,3-dimethylpiperidin-1-yl)-1,4-dihydro-4-oxo-quinoline-3-carboxylic acid hydrochloride]

- solubility [2]: 80 to 200 mg/mL
Compound: COc1c(N2CC[C@@H](N)C(C)(C)C2)c(F)cc2c(=O)c(C(=O)O)cn(C3CC3)c12.CS(=O)(=O)O [(+) B-1, R-(+)-1-cyclopropyl-6-fluoro-8-methoxy-7-(4-amino-3,3-dimethylpiperidin-1-yl)-1,4-dihydro-4-oxo-quinoline-3-carboxylic acid mesylate]

- thermodynamic stability of polymorph [1]: thermodynamically stable
Compound: COc1c(N2CC[C@H](N)C(C)(C)C2)c(F)cc2c(=O)c(C(=O)O)cn(C3CC3)c12.Cl [(−) A-3, S-(−)-1-cyclopropyl-6-fluoro-8-methoxy-7-(4-amino-3,3-dimethylpiperidin-1-yl)-1,4-dihydro-4-oxo-quinoline-3-carboxylic acid hydrochloride]

- polymorph change on storage (Powder X-ray Diffraction spectrum and aqueous solubility change) [1, 3]: changed to polymorph A-2
Compound: COc1c(N2CCC(N)C(C)(C)C2)c(F)cc2c(=O)c(C(=O)O)cn(C3CC3)c12.Cl (racemic) [(±) A-1, (±)-1-cyclopropyl-6-fluoro-8-methoxy-7-(4-amino-3,3-dimethylpiperidin-1-yl)-1,4-dihydro-4-oxo-quinoline-3-carboxylic acid hydrochloride]
